Measurements taken from publication PMC9928118, “Funneling modulatory peptide design with generative models: Discovery and characterization of disruptors of calcineurin protein-protein interactions” (PLOS Computational Biology, 2023).

Experiments:
GST-tagged Cn [1] = experiment: PEPperPRINT peptide microarray binding assay with GST-tagged Cn; settings: GST-tagged Cn, mean over the duplicate spots (Location on chip)
Procedure, shortened: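 Qualitative binding: peptides printed on a PEPperPRINT microarray were incubated overnight at 4 °C with 1 mg/ml GST-tagged Cn, then detected with Alexa-Fluor 647 anti-GST antibody. Log fluorescence was baseline-corrected, averaged over duplicate spots, Z-normalized and averaged across five repeats.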

GST-tagged Cn [2] = experiment: as above; settings: max over the duplicate spots (Location on chip)

Sequence | Chip Fluorescence (mean) (GST-tagged Cn [1]) | Chip Fluorescence (max) (GST-tagged Cn [2])
AEVGIVRFSRHPVAQD [Seqshuffled_9961] | 0.06577 | 2.2
ASEANPEITVTPAELP [SeqRBMlowT_1250] | -0.04845 | 2.513
ASSANPEITVTPAELP [SeqRBMlowT_4424] | 0.4111 | 2.528
DCIGFCSVPVMYAPNH [Seqrandom_1239] | -0.3019 | 2.175
EPYVAFFYQFSHDPKS [Seqshuffled_9939] | -0.878 | 2.266
ESRYRRFRQFQAPKVD [Seqshuffled_9523] | 1.1019 | 2.434
FQTDAPTIPIDQAPIC [SeqRBM_9788] | 0.3576 | 1.993
FTMKFAWALPQCYVHC [Seqrandom_9941] | 0.4694 | 2.049
GAYMCPFMSWQDCGQR [SeqRBMlowT_4796] | 0.4498 | 2.042
GFETTPSIVVHVCEED [SeqRBMlowT_1939] | 0.4497 | 2.448
GGPGTPSRQGQTAAPS [SeqRBM_5534] | -0.2851 | 2.523
GGPSTPGRQNNPLAPS [SeqRTS1_Zymoseptoria_tritici] | -0.03327 | 2.314
GNDDCPEVVVHPPEED [SeqRBMlowT_7697] | 0.9366 | 2.095
GNKEFSPLNVEGLSGN [Seqshuffled_9463] | 0.833 | 2.018
GSLLIPHCDMSAGGSY [SeqRBM_2528] | -0.05077 | 2.002
GTDLRQQTAAQPNDGA [Seqshuffled_4362] | 0.6141 | 2.523
HCRFEWPFGFSMIRYP [Seqrandom_9994] | -1.666 | 2.458
HDLQCVINLHENACKT [Seqrandom_9996] | -0.1329 | 2.151
HIIIVWAVSEVKYVQL [Seqrandom_9992] | 0.6897 | 1.914
HPYMGPKIQFHSGGRK [SeqRBM_457] | 0.3342 | 2.294
HSKLIPKLSIQSPVEH [SeqRBMlowT_3447] | 0.373 | 2.177
HVSSSPDVTLKPPQHR [SeqRBMlowT_2147] | 0.4725 | 2.217
KADYTISLILHYDAIE [Seqshuffled_9660] | 0.7325 | 1.911
KAYMCPFMQFIDGGRR [SeqRBMlowT_502] | -0.1535 | 2.385
KAYMCPYGSFTYGGRR [SeqRBM_3412] | 0.9697 | 2.568
KAYMCPYMQFIAGGRK [SeqRBM_8989] | 0.7869 | 1.932
KAYMCPYMQFIEGGRR [SeqSFB3_Ictalurus_punctatus] | 1.763 | 2.501

Sequence | Chip Fluorescence (mean) (GST-tagged Cn [1]) | Chip Fluorescence (max) (GST-tagged Cn [2])
KAYMNPFMQFIDGGRK [SeqRBMlowT_6686] | 0.8271 | 2.02
KELANLRVTPPDNGTL [SeqRBM_2710] | 0.2344 | 2.355
KKMAPPAINIDPAPTN [SeqRBMlowT_321] | -0.1981 | 2.529
KKMSPPCISVHPPDED [SeqRBMlowT_7695] | 0.511 | 2.045
KKMSPPCITITPAPGA [SeqRBMlowT_7625] | -0.7518 | 2.125
KNARGPLIIIHPMEED [SeqRBM_1913] | 1.192 | 2.283
KSKRIPKLSVVSPVHH [SeqRBM_6422] | 0.728 | 2.115
LLDNVPAVHVHDMGGH [SeqRBM_9035] | 0.6608 | 1.904
LMDLCPVVRLQIISAL [SeqRBM_7616] | 0.2546 | 2.223
LNDEIPEVRLNIISAL [SeqRBMlowT_4170] | -0.4845 | 2.3229
LRDEVPEVRLNIISDL [SeqRBM_180] | -0.2367 | 2.2011
LSLYVNALGMESFTIS [SeqRBM_9141] | 0.3343 | 2.172
LSSSNPEITVTPAELD [SeqRBMlowT_6234] | -0.4808 | 1.968
NNLAINDVTAGDRGCY [SeqRBM_1373] | 1.818 | 2.1787
PGQMQPSINVMAEKNP [SeqRBM_977] | -0.5544 | 1.973
PMKTRGLYGWPPCAKW [Seqrandom_5226] | 0.996 | 2.284
PNGSNPETVIKPDWTE [SeqRBM_275] | 0.6822 | 1.983
PNKICGQRSFDGEHQN [Seqshuffled_9648] | -0.254 | 2.3848
PSHSIPKHSWESAVEH [SeqRBM_3394] | -0.5716 | 2.053
PSIYQEVLGIGNFSLS [SeqRBMlowT_4899] | 0.7614 | 2.16
PSLYENALGMESFTIS [SeqRBMlowT_2807] | -0.3855 | 2.474
PSLYINALGIESFTLS [SeqRBMlowT_6967] | 0.7051 | 2.037
PTNGIPEMQRNSAKSA [Seqshuffled_9538] | 0.992 | 2.2337
QWSLGVGIVITVTETM [SeqRBM_1755] | 0.7956 | 2.2853
RAYDNPVFSFTFDSKG [SeqRBM_7566] | 0.4256 | 2.445
RAYINPFMQFTFDSNK [SeqRBMlowT_4738] | 0.6521 | 2.119
RAYKNPFMQFDLDSSL [SeqRBM_8076] | 1.346 | 2.512

Sequence | Chip Fluorescence (mean) (GST-tagged Cn [1]) | Chip Fluorescence (max) (GST-tagged Cn [2])
RAYMNPSVCFTDGGAR [SeqRBM_6787] | 0.3113 | 1.921
RFYINPFVQFSDGGNN [SeqRBM_1053] | -0.5027 | 2.558
RMYINPFVQFIDGGNR [SeqSFB3_Mycena_chlorophos] | -0.09268 | 2.0812
RNPESPVLELEGHSAS [SeqRBMlowT_6180] | 0.5231 | 1.97
RNPESPVLELEGHSSP [SeqRBMlowT_6390] | 1.113 | 2.243
RNPGSPVLVLEGHSAA [SeqYPL247C_Zygosaccharomyces_parabailii] | -0.2767 | 2.128
RNPGTFLLTLRGHKKQ [SeqRBMlowT_5813] | 1.08 | 2.447
RQPGQALLELRGHSAS [SeqRBMlowT_7735] | 0.19 | 2.013
RQPGSPVLELSGHSAN [SeqRBMlowT_5862] | 0.5615 | 2.053
RSKFIPKLSLQSPVHH [SeqRBMlowT_1791] | 0.1659 | 2.2877
RTYINPFMLFEDMGSR [SeqRBM_7588] | 0.1039 | 2.523
RTYINPFMQFNRGGRK [SeqRBM_3856] | 0.8441 | 2.196
RTYINPFMQFTYDGRR [SeqRBMlowT_4071] | 1.243 | 1.896
SDVAQQCLPSQHWSCW [Seqrandom_9997] | 0.2486 | 2.401
SFWTNPQFIITLQEED [SeqRBMlowT_7307] | 0.8738 | 2.363
SSLYENALGIESFTLS [SeqRBMlowT_2888] | 0.9732 | 2.496
SSMAQPAINIDFAPTN [SeqRBMlowT_2450] | -0.1624 | 2.328
SSSAAPEIVVSKPEHN [SeqRBMlowT_9785] | -0.01901 | 2.217
STASLPSFNFSFLTSS [SeqNUP153_Antrostomus_carolinensis] | -0.1064 | 2.477
STPLPQGAPISPNTLA [Seqshuffled_9522] | -0.4537 | 2.383
STSSLPTFSFSSPLSS [SeqRBMlowT_2357] | 0.4296 | 2.106
TFFINPQFKASLTEMD [SeqRBM_564] | 0.5882 | 2.053
TFMMNPQYRLYKSVSP [SeqRBM_6553] | 0.3935 | 2.027
TFNNNPQATVRRTDID [SeqRBM_1961] | 0.6511 | 1.877
TFWANPQITITLAELD [SeqRBMlowT_7358] | 0.7622 | 2.261
TFWMNPQYRITLEEPD [SeqRBMlowT_2265] | 0.1767 | 2.207
